In patent US8344004B2, “Cyclic pyridyl-N-[1,3,4]-thiadiazol-2-yl-benzene sulfonamides, processes for their preparation and their use as pharmaceuticals” (Sanofi, priority 2007, dated 2013):
Like-named read-outs stand apart in the source and are kept apart here.

Tests used:
human PPARdelta = biological target: T1, human PPARdelta (Homo sapiens, UniProt Q03181); experiment: Cellular PPARdelta assay (stably transfected HEK luciferase reporter cell line); format: cell-based; conditions: GR-GAL4-humanPPARdelta-LBD
T1 construct: amino acids S139-Y441; expressed in transfected cells; host or cells: HEK cells, stably transfected (pcDNA3, CMV promoter)
T1 sequence (Q03181 139-441): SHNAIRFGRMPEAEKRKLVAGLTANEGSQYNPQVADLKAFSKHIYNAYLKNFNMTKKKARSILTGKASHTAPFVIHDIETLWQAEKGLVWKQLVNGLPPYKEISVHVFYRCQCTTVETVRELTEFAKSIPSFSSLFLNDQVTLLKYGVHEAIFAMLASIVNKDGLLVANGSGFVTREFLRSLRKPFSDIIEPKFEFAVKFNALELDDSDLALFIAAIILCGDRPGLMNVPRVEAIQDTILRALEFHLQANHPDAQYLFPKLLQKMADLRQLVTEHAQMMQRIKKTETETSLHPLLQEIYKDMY
Method: The PPARalphareporter cell line is cultivated to 80% confluence in DMEM (#41965-039, Invitrogen) which is mixed with the following additions: 10% cs-FCS (fetal calf serum; #SH-30068.03, Hyclone), 0.5 mg/ml zeocin (#R250-01, Invitrogen), 0.5 mg/ml G418 (#10131-027, Invitrogen), 1% penicillin-streptomycin solution (#15140-122, Invitrogen) and 2 mM L-glutamine (#25030-024, Invitrogen). The cultivation takes place in standard cell culture bottles (# 353112, Becton Dickinson) in a cell culture incubator at 37° C. in the presence of 5% CO2. The 80%-confluent cells are washed once with 15 ml of PBS (#14190-094, Invitrogen), treated with 3 ml of trypsin solution (#25300-054, Invitrogen) at 37° C. for 2 min, taken up in 5 ml of the DMEM described and counted in a cell counter. After dilution to 500.000 cells/ml, 35,000 cells are seeded in each well of a 96 well microtiter plate with a clear plastic base (#3610, Corning Costar). The plates are incubated in the cell culture incubator at 37° C. and 5% CO2 for 24 h.
PPARalpha agonists to be tested are dissolved in DMSO in a concentration of 10 mM. This stock solution is diluted in DMEM (#41965-039, Invitrogen) which is mixed with 5% cs-FCS (#SH-30068.03, Hyclone), 2 mM L-glutamine (#25030-024, Invitrogen) and the previously described antibiotics (zeocin, G418, penicillin and streptomycin). Test substances are tested in 11 different concentrations in the range from 10 μM to 100 pM.
The medium of the PPARalpha reporter cell line seeded on day 1 is completely removed by aspiration, and the test substances diluted in medium are immediately added to the cells. The dilution and addition of the substances is carried out by a robot (Beckman FX). The final volume of the test substances diluted in medium is 100 μl per well of a 96 well microtiter plate. The DMSO concentration in the assay is less than 0.1% v/v in order to avoid cytotoxic effects of the solvent.
The assay plates are incubated in an incubator at 37° C. and 5% CO2 for 24 h.
The PPARalpha reporter cells treated with the test substances are removed from the incubator, and the medium is aspirated off. The cells are lyzed by pipetting 50 μl of Bright Glo reagent (from Promega) into each well of a 96 well microtiter plate. After incubation at room temperature in the dark for 10 minutes, the microtiter plates are measured in the luminometer (Trilux from Wallac). The measuring time for each well of a microtiter plate is 1 sec.
The raw data from the luminometer are transferred into a Microsoft Excel file. Dose-effect plots and EC50 values of PPAR agonists are calculated using the XL.Fit program as specified by the manufacturer (IDBS).
The potency of substances which bind to human PPARdelta and activate it in an agonistic manner is analyzed using a stably transfected HEK cell line (HEK=human embryo kidney) which is referred to here as PPARdelta reporter cell line. In analogy to the assay described for PPARalpha, the PPARdelta reporter cell line also contains two genetic elements, a luciferase reporter element (pdeltaM-GAL4-Luc-Zeo) and a PPARdelta fusion protein (GR-GAL4-humanPPARdelta-LBD) which mediates expression of the luciferase reporter element depending on a PPARdelta ligand. […] The luciferase which is formed can be detected by means of chemiluminescence via an appropriate substrate. […]

human PPARgamma = biological target: T2, human PPARgamma (Homo sapiens, UniProt P37231); experiment: Cellular PPARgamma assay (transiently transfected HEK cells, luciferase reporter); format: cell-based; conditions: GAL4-humanPPARgammaLBD
T2 construct: amino acids I152-Y475; expressed in transfected cells; host or cells: HEK cells, transiently transfected with pcDNA3-GAL4-humanPPARgammaLBD
T2 sequence (P37231 182-477 isoform P37231-2 limits assumed): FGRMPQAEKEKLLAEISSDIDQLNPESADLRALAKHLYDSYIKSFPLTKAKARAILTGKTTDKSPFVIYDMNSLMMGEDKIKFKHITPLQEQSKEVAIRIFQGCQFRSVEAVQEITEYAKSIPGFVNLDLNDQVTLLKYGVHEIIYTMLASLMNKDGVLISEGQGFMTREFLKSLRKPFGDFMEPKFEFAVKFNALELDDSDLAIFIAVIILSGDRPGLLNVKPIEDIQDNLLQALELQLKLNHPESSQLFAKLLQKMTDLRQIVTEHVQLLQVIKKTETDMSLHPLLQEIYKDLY
Source text: A transient transfection system is employed to determine the cellular PPARgamma activity of PPAR agonists. It is based on the use of a luciferase reporter plasmid (pGL3basic-5×GAL4-TK) and of a PPARgamma expression plasmid (pcDNA3-GAL4-humanPPARgammaLBD). Both plasmids are transiently transfected into human embryonic kidney cells (HEK cells). There is then expression in these cells of the fusion protein GAL4-humanPPARgammaLBD which binds to the GAL4 binding sites of the reporter plasmid. In the presence of a PPARgamma-active ligand, the activated fusion protein GAL4-humanPPARgammaLBD induces expression of the luciferase reporter gene, which can be detected in the form of a chemiluminescence signal after addition of a luciferase substrate. As a difference from the stably transfected PPARalpha reporter cell line, in the cellular PPARgamma assay the two components (luciferase reporter plasmid and PPARgamma expression plasmid) are transiently transfected into HEK cells because stable and permanent expression of the PPARgamma fusion protein is cytotoxic.
The luciferase reporter plasmid pGL3basic-5×GAL4-TK is based on the vector pGL3basic from Promega. The reporter plasmid is prepared by cloning five binding sites of the yeast transcription factor GAL4 (each binding site with the sequence 5′-CTCGGAGGACAGTACTCCG-3′), together with a 160 bp-long thymidine kinase promoter section (Genbank Accession # AF027128) 5′-upstream into pGL3basic. 3′-downstream of the thymidine kinase promoter is the complete luciferase gene from Photinus pyralis (Genbank Accession # M15077) which is already a constituent of the plasmid pGL3basic used. The cloning and sequencing of the reporter plasmid pGL3basic-5×GAL4-TK took place in analogy to the description in Sambrook J. et. al. (Molecular cloning, Cold Spring Harbor Laboratory Press, 1989).
The PPARgamma expression plasmid pcDNA3-GAL4-humanPPARgammaLBD was prepared by first cloning the cDNA coding for amino acids 1-147 of the yeast transcription factor GAL4 (Genbank Accession # P04386) into the plasmid pcDNA3 (from Invitrogen) 3′-downstream of the cytomegalovirus promoter. Subsequently, the cDNA of the ligand-binding domain (LBD) of the human PPARgamma receptor (amino acids I152-Y475; Accession # g1480099) 3′-downstream of the GAL4 DNA binding domain. Cloning and sequencing of the PPARgamma expression plasmid pcDNA3-GAL4-humanPPARgammaLBD again took place in analogy to the description in Sambrook J. et. al. (Molecular cloning, Cold Spring Harbor Laboratory Press, 1989). Besides the luciferase reporter plasmid pGL3basic-5×GAL4-TK and the PPARgamma expression plasmid pcDNA3-GAL4-humanPPARgammaLBD, also used for the cellular PPARgamma assay are the reference plasmid pRL-CMV (from Promega) and the plasmid pBluescript SK(+) from Stratagene. All four plasmids were prepared using a plasmid preparation kit from Qiagen, which ensured a plasmid quality with a minimal endotoxin content, before transfection into HEK cells.
The activity of PPARgamma agonists is determined in a 4-day assay which is described below. Before the transfection, HEK cells are cultivated in DMEM (#41965-039, Invitrogen) which is mixed with the following additions: 10% FCS (#16000-044, Invitrogen), 1% penicillin-streptomycin solution (#15140-122, Invitrogen) and 2 mM L-glutamine (#25030-024, Invitrogen).
Firstly, solution A, a transfection mixture which contains all four plasmids previously described in addition to DMEM, is prepared. […]

[1] = diabetic animal model; cited from earlier work
[2] = obese, insulin resistant rhesus monkeys; cited from earlier work
[3] = two weeks clinical trials in healthy volunteers; cited from earlier work
[4] = rhesus and cynomolgus monkeys; cited from earlier work

Row | EC50 (human PPARdelta) | EC50 (human PPARgamma) | Compound | other results
1 | 60 nM | 26 nM | CC(C)c1nnc(NS(=O)(=O)c2ccc(C3(CNc4ncc(C(F)(F)F)cc4Cl)CCCCC3)cc2)s1 [Example 1, 4-{1-[(3-Chloro-5-trifluoromethyl-pyridin-2-ylamino)-methyl]-cyclohexyl}-N-(5-isopropyl-[1,3,4]thiadiazol-2-yl)-benzenesulfonamide] | –
2 | 67 nM | 647 nM | CC(C)c1nnc(NS(=O)(=O)c2ccc([C@@H]3CCC[C@H]3Nc3ncc(C(F)(F)F)cc3Cl)cc2)s1 [Example 2, Trans-4-[(1S,2R)-2-(3-chloro-5-trifluoromethyl-pyridin-2-ylamino)-cyclopentyl]-N-(5-isopropyl-[1,3,4]thiadiazol-2-yl)-benzene-sulfonamide] | –
3 | 1 nM | 1800 nM | CC(C)c1nnc(NS(=O)(=O)c2ccc([C@@H]3CCC[C@@H]3Nc3ncc(C(F)(F)F)cc3Cl)cc2)s1 [Example 3, Cis-4-[(1S,2R)-2-(3-chloro-5-trifluoromethyl-pyridin-2-ylamino)-cyclopentyl]-N-(5-isopropyl-[1,3,4]thiadiazol-2-yl)-benzene-sulfonamide] | –
4 | 220 nM | 990 nM | CC(C)c1nnc(NS(=O)(=O)c2ccc(C3(CNc4ncc(C(F)(F)F)cc4Cl)CCCC3)cc2)s1 [Example 4, 4-{1-[(3-Chloro-5-trifluoromethyl-pyridin-2-ylamino)-methyl]-cyclopentyl}-N-(5-isopropyl-[1,3,4]thiadiazol-2-yl)-benzene-sulfonamide] | –
5 | 779 nM | > 10000 nM | CC(C)c1nnc(NS(=O)(=O)c2cc3c(cc2Cl)CC(Nc2ncc(C(F)(F)F)cc2Cl)C3)s1 (centres unmarked) [Example 8, 6-Chloro-2-(3-chloro-5-trifluoromethyl-pyridin-2-ylamino)-indan-5-sulfonic acid (5-isopropyl-[1,3,4]thiadiazol-2-yl)amide] | –
6 | – | – | CCCc1c(OCCCOc2ccc(OCC(=O)O)cc2)ccc(C(C)=O)c1O [Example L-165041] | plasma cholesterol [1]: raises plasma cholesterol
7 | – | – | Cc1cc(SCc2sc(-c3ccc(C(F)(F)F)cc3)nc2C)ccc1OCC(=O)O [GW501516] | HDL-cholesterol [2]: raises; insulin levels [2]: decreases; plasma LDL-cholesterol [2]: decreases; triglycerides [2]: decreases
8 | – | – | CCCc1c(OCCCSc2nnc(SCC(=O)O)s2)ccc(C(C)=O)c1O [YM-16638] | plasma lipids [3]: acts in a similar manner; plasma lipids [4]: significantly lowers
